# Laboratory results taken from patent US20230329282A1, “Application of 1-Deoxynojirimycin in Feed for Improving Nutritional Value and Sensory Effect of Rabbit Meat Products” (priority 2023, published 2023).
# Marks after values point to notes of the source that are not given here.
# How the values were obtained:
# Type in all cases: in vivo
# [1] = system: New Zealand white rabbits; experiment: Growth performance (ADFI, ADG, FCR); conditions: 28 d trial
# From the text: (§1) The single-factor completely randomized test design is adopted. 36 45-day-old healthy New Zealand white rabbits (male) with the average weight of (1.05±0.04) kg are selected and randomly divided into 3 groups, and each group has 12 replicates with 1 rabbit per replicate. A control group is fed with a basal diet, an L-DNJ group is fed with the basal diet+0.14 g/kg DNJ, and an H-DNJ group is fed with the basal diet+0.28 g/kg DNJ. The diet is uniformly mixed to be prepared into cylindrical particles with the diameter of 6 mm and the length of 1 cm. The preliminary trial period is 14 d, and the trial period is 28 d.
# In the morning of the first day of the trial period and the second day after the trial, the experimental rabbits are weighed once on an empty stomach, and the average daily gain (ADG) of each rabbit is calculated. Leftovers are collected and weighed before feeding, and the average daily feed intake (ADFI) of each rabbit is calculated. The ratio of the average daily feed intake to the average daily gain is the feed conversion rate (FCR). The calculation formula is as follows: • ADG=(final weight−initial weight)/test days; • ADFI=total feed intake/test days; • FCR=ADFFADG.
# [2] = system: New Zealand white rabbits; experiment: Meat quality of rabbit longissimus dorsi (pH, meat color, drip loss, shear force) after DNJ-supplemented diet; conditions: 28 d; for Meat color Brightness L* / Meat color Redness a* / Meat color Yellowness b* / pH45min / pH24 h / pH24 h decreased: longissimus dorsi; for Drip loss: meat hung at 4° C. 24 h
# From the text: as §1
# Before the test, rabbit houses and cages are cleaned and disinfected, rabbits are immunized according to routine procedures, and the rabbit houses are naturally ventilated and illuminated. Each experimental rabbit is raised in a single cage and fed with a diet and water twice a day at fixed time (8:00 am and 17:00 pm), and is free to eat and drink.
# (§2) The rabbits are deprived of food (but not water) on the night of the end of the experiment, and after weighing in the next morning, 8 rabbits with similar weight are selected from each group and slaughtered. The longissimus dorsi muscles of the rabbits are collected, the pH values of the front, middle and back parts of the longissimus dorsi muscle are measured with a pH meter (Bante221, Shanghai Bante Instrument Co., Ltd.) having the function of automatic temperature compensation and then measured again after standing at room temperature for 24 h, and the pH decreased values of the muscle within 24 h are calculated. The pH value is the average value of the three readings. The meat color (L*, α*, b*) is measured with a TC-PIIG automatic color difference meter (Beijing Aoyike Photoelectric Instrument Co., Ltd.) on the muscle surface. The detection light source is D65 according to CIE laboratory standards, and the measurement area is 8 mm in diameter. The average value is obtained by making three measurements at each detection point.
# About 20 g of meat sample is weighed (demoted as M1), hung with a thin thread, and covered with a plastic bag with the mouth sealed, enough space is left inside to accommodate oozy water drops, and the meat sample is hung in a 4° C. refrigerator for 24 h. After being taken out, the meat sample is weighed (denoted as M2) after the surface moisture is absorbed with absorbent paper. 3 parallel samples are measured for each rabbit, and the results are averaged. Drip loss=(M1−M2)/M1×100%.
# Another meat sample is trimmed into a 1 cm×1 cm×2.5 cm meat strip, the shear force is measured in the direction perpendicular to the muscle fibers by a TMS-PRO texture analyzer (FTC Corporation, USA) for three times, and the results are averaged.
# [3] = system: New Zealand white rabbits; experiment: Nutritional ingredients of muscle (moisture, crude protein, ether extract); conditions: 28 d
# From the text: as §1, §2
# The contents of moisture, crude protein and ether extract in the muscle are measured according to the method proposed by Zhang Liying (Zhang Liying. Feed analysis and feed quality inspection technology [M]. 4th Ed. Beijing: China Agricultural University Press, 2016).
# [4] = system: New Zealand white rabbits; experiment: Apparent digestibility of nutrients, total collection method; conditions: feces collected 3 d from day 14
# From the text: as §1
# On the 14th day of the test, 8 experimental rabbits with similar weight are randomly selected from each group and transferred to metabolism cages for digestion and metabolism tests. The digestion and metabolism tests are conducted by the total collection method. All fecal samples of the experimental rabbits are collected for 3 consecutive days, and the contents of nutrients in the diet and fecal samples are measured according to the method in the book written by Zhang Liying. The calculation formula is: apparent digestibility of a nutrient (%)=(content of the nutrient in diet−content of the nutrient in feces)/content of the nutrient in diet×100.
# [5] = H-DNJ: basal diet+0.28 g/kg DNJ
# [6] = L-DNJ: basal diet+0.14 g/kg DNJ
structure (smiles),measurement,setting,value
"OC[C@H]1NC[C@H](O)[C@@H](O)[C@@H]1O [DNJ, 1-deoxynojirimycin]",Average daily feed intake (ADFI),[1]; [5],140.46
same,Average daily gain (ADG),[1]; [5],32.66 g/day
same,Feed conversion rate (FCR),[1]; [5],0.24 g/g
same,Average daily feed intake (ADFI),[1]; [6],145.33
same,Average daily gain (ADG),[1]; [6],36.18 g/day
same,Feed conversion rate (FCR),[1]; [6],0.25 g/g
same,Shear force,[2]; [5],33.51 N/cm^2
same,Meat color Brightness L*,[2]; [5],55.34^b
same,Meat color Redness a*,[2]; [5],1.71ª
same,Meat color Yellowness b*,[2]; [5],8.35
same,pH45min,[2]; [5],6.77
same,pH24 h,[2]; [5],5.89
same,pH24 h decreased,[2]; [5],0.87
same,Drip loss,[2]; [5],3.17%
same,Shear force,[2]; [6],32.86 N/cm^2
same,Meat color Brightness L*,[2]; [6],55.82^ab
same,Meat color Redness a*,[2]; [6],1.56ª
same,Meat color Yellowness b*,[2]; [6],8.32
same,pH45min,[2]; [6],6.62
same,pH24 h,[2]; [6],5.87
same,pH24 h decreased,[2]; [6],0.76
same,Drip loss,[2]; [6],3.56%
same,Nutritional ingredient of muscle: Crude protein (CP),[3]; [5],22.18
same,Nutritional ingredient of muscle: Ether extract (EE),[3]; [5],0.60^c
same,Nutritional ingredient of muscle: Moisture,[3]; [5],75.20
same,Nutritional ingredient of muscle: Crude protein (CP),[3]; [6],22.09
same,Nutritional ingredient of muscle: Ether extract (EE),[3]; [6],2.50^b
same,Nutritional ingredient of muscle: Moisture,[3]; [6],75.93
same,Apparent digestibility of Acid detergent fiber (ADF),[4]; [5],14.88%
same,Apparent digestibility of Crude ash,[4]; [5],42.23%
same,Apparent digestibility of Crude fiber (CF),[4]; [5],14.56%
same,Apparent digestibility of Crude protein (CP),[4]; [5],76.25ª %
same,Apparent digestibility of Dry matter (DM),[4]; [5],60.79^b %
same,Apparent digestibility of Ether extract (EE),[4]; [5],78.35^b %
same,Apparent digestibility of Neutral detergent fiber,[4]; [5],20.68%
same,Apparent digestibility of Acid detergent fiber (ADF),[4]; [6],12.34%
same,Apparent digestibility of Crude ash,[4]; [6],43.44%
same,Apparent digestibility of Crude fiber (CF),[4]; [6],13.54%
same,Apparent digestibility of Crude protein (CP),[4]; [6],75.17^ab %
same,Apparent digestibility of Dry matter (DM),[4]; [6],61.35^ab %
same,Apparent digestibility of Ether extract (EE),[4]; [6],79.84^ab %
same,Apparent digestibility of Neutral detergent fiber,[4]; [6],21.02%
